SMILES strings stand for the structures.

One test has as its system HCV (JFH-1) in Huh7-1 cells. Description: Assay for anti-HCV efficacy: JFH-1 HCV infection of Huh7-1 cultures, intracellular HCV RNA by RT-qPCR. It counts as cell-based, Hepatitis C virus. The note with it: Compound Example 1 series; % viral titer at 5 μM or 15 μM; HCV-infected Huh7-1 cultures. The source says: In the past, HCV studies involved mainly infected patients and chimpanzees. Recently, a robust HCV infection system was developed with cells derived from the Huh-7 human hepatoma cell line (see, for example, Yu et al., “Development of a cell-based hepatitis C virus infection fluorescent resonance energy transfer assay for high-throughput antiviral compound screening” Antimicrob Agents Chemother. 2009 53:4311-4319 for additional details regarding growing virus stocks, maintenance of the Huh-7 cells, infection parameters, and HCV titers determinations; and Yu & Uprichard “Cell-based hepatitis C virus infection fluorescence resonance energy transfer (FRET) assay for antiviral compound screening” Curr Protoc Microbiol. 2010; Chapter 17: Unit 17.5). Briefly, the assay is based on the unique JFH-1 HCV consensus cDNA derived from an HCV patient. Using reverse genetics, the infectious virus can be rescued from this HCV clone. The recovered viable JFH virus can be passaged serially in Huh-7 cells. For this reason, this system is amenable for testing the activity of potential drugs for their anti-HCV efficacy. The antiviral activity of the compounds described herein is tested in this system.
Initially, 6×10^3 Huh7-1 cells are incubated overnight in each well of collagen-coated BioCoat 96-well plates (BD Biosciences, Bedford, Mass.) in 0.2 mL 10% Medium composed of Dulbecco's modified Eagle's medium supplemented with 10% fetal bovine serum. Subsequently, at 2 day intervals, the cultures are replenished with fresh 0.2 mL 10% Medium. Once the cultures become confluent, they are continually replenished at 2 day intervals with fresh 0.2 mL 10% Medium that also includes 1% dimethyl sulfoxide (DMSO). After 20 days of these replenishments, the Huh7-1 cultures are incubated with fresh 1% Medium (same as 10% Medium except that the serum level is 1%) containing HCV at a multiplicity of infection (MOI) of 0.05 focus forming units (ffu)/cell. The HCV (JFH-1wt Huh7) stock titer is 1.5×10^5 ffu/mL. The next day (day 1 post-infection) and 2 days later (day 3 post-infection) the media are replenished with fresh 1% Medium containing the test compounds dissolved in DMSO. On the 5th day of treatment with the compounds, cell lysates are collected for RNA isolation and Real Time-quantitative Reverse Transcription Polymerase Chain Reaction (RT-qPCR) and culture media are collected for cytotoxicity analysis.
Total RNA is isolated from cells by the guanidine thiocyanate method using standard protocols. One μg RNA is used for cDNA synthesis using TaqMan reverse transcription reagents (Applied Biosystems, Foster City, Calif.) followed by real-time PCR using an Applied Biosystems 7300 real-time thermocycler. Illustrative thermal cycling consists of initial denaturation of 10 min at 95° C. followed by 40 cycles of denaturation (15 s at 95° C.) and annealing/extension (1 m at 60° C.). HCV and human glyceraldehyde-3-phosphate dehydrogenase (GAPDH) RNA levels are determined relative to a standard curve of serial dilutions of plasmid containing JFH-1 HCV or GAPDH cDNA. The PCR primers used to detect GAPDH and HCV are illustratively: GAPDH (NMX002046) 5′-GAAGGTGAAGGTCGGAGTC-3′ (SEQ ID NO: 5) (sense) and 5′-[…]-3′ (SEQ ID NO: 6) (anti-sense) JFH-1 HCV (AB047639) 5′-TCTGCGGAACCGGTGAGTA-3′ (SEQ ID NO: 7) (sense) and 5′-TCAGGCAGTACCACAAGGC-3′ (SEQ ID NO: 8) (anti-sense).
FIGS. 1-7 illustrate the intracellular HCV RNA levels when cultures are incubated with the selected test compounds at the doses shown. When HCV RNA levels are compared among the samples, the data may indicate that the compounds cause a dose dependent decrease in HCV RNA levels relative to the mock-treated (no compound added) HCV infected control.
Regarding `O=C(c1ccccn1)N1CC(c2ccc(F)cc2)C2CN(Cc3ccccn3)CCC21` (stereo not shown), the “Activity (viral titer)” value is “− (>60% viral titer at 15 μM (highest concentration tested))”.
In the case of `COc1ccc(CN2CC[C@@H]3[C@H](C2)[C@@H](c2ccc(F)cc2)CN3C(=O)c2ccccc2)cc1`, the “Activity (viral titer)” value is “++ (≦60% viral titer at 5 μM)”.
As for `O=C(c1ccccc1F)N1CC(c2ccsc2)C2CN(Cc3ccncc3)CCC21` (stereo not shown), the “Activity (viral titer)” value is recorded as “− (>60% viral titer at 15 μM (highest concentration tested))”.
On to `Cc1cccc(CN2CCC3C(C2)C(c2ccsc2)CN3C(=O)c2ccccc2F)c1` (stereo not shown), for which the “Activity (viral titer)” value is given as “++ (≦60% viral titer at 5 μM)”.
With `O=C(c1cccnc1)N1C[C@H](c2ccc(F)cc2)[C@H]2CN(Cc3ccncc3)CC[C@H]21`, the “Activity (viral titer)” value is given as “− (>60% viral titer at 15 μM (highest concentration tested))”.
For `O=C(c1cccs1)N1C[C@H](c2ccc(F)cc2)[C@H]2CN(Cc3ccccn3)CC[C@H]21`, the “Activity (viral titer)” value is on record as “− (>60% viral titer at 15 μM (highest concentration tested))”.
On the same count and under the same terms, the result for `Cc1ccccc1CN1CC[C@@H]2[C@H](C1)[C@@H](c1ccc(F)cc1)CN2C(=O)c1cccs1` reads “− (>60% viral titer at 15 μM (highest concentration tested))”.
`COc1ccc(C2CN(C(=O)c3ccccc3)C3CCN(Cc4ccccc4F)CC23)cc1` (stereo not shown): the “Activity (viral titer)” value was “++ (≦60% viral titer at 5 μM)”.
As for `COc1cccc([C@H]2CN(C(=O)c3ccccc3)[C@@H]3CCN(Cc4cccc(F)c4)C[C@H]23)c1`, the “Activity (viral titer)” value is listed as “− (>60% viral titer at 15 μM (highest concentration tested))”.
For the molecule `COc1ccc(C2CN(C(=O)c3ccccc3)C3CCN(Cc4cccs4)CC23)cc1` (stereo not shown), the “Activity (viral titer)” value is “− (>60% viral titer at 15 μM (highest concentration tested))”.
Consider `COc1cccc([C@H]2CN(C(=O)c3ccccc3)[C@@H]3CCN(Cc4cccs4)C[C@H]23)c1`, for which the “Activity (viral titer)” value was “− (>60% viral titer at 15 μM (highest concentration tested))”.
For the molecule `O=C(c1cccs1)N1CC(c2ccc(F)cc2)C2CN(Cc3ccccc3F)CCC21` (stereo not shown), the “Activity (viral titer)” value is given as “+ (≦60% viral titer at 15 μM)”.
Turning to `O=C(c1cccnc1)N1CC(c2ccc(F)cc2)C2CN(Cc3ccc(F)cc3)CCC21` (stereo not shown), the “Activity (viral titer)” value is “− (>60% viral titer at 15 μM (highest concentration tested))”.
Regarding `O=C(c1ccccc1F)N1C[C@H](c2ccsc2)[C@H]2CN(Cc3ccc(F)cc3)CC[C@H]21`, the “Activity (viral titer)” value is on record as “+++ (≦30% viral titer at 5 μM)”.
`O=C(c1ccccc1F)N1CC(c2ccsc2)C2CN(Cc3ccccc3F)CCC21` (stereo not shown): the “Activity (viral titer)” value was “− (>60% viral titer at 15 μM (highest concentration tested))”.
Turning to `COc1cccc(C2CN(C(=O)c3ccccc3)C3CCN(Cc4ccsc4)CC23)c1` (stereo not shown), the “Activity (viral titer)” value was “++ (≦60% viral titer at 5 μM)”.
Still for that read-out and setting: the result for `COc1cccc(C2CN(C(=O)c3ccccc3)C3CCN(Cc4ccccn4)CC23)c1` (stereo not shown) reads “− (>60% viral titer at 15 μM (highest concentration tested))”; that for `COc1ccc([C@H]2CN(C(=O)c3ccccc3)[C@@H]3CCN(Cc4ccsc4)C[C@H]23)cc1`, “− (>60% viral titer at 15 μM (highest concentration tested))”.

The same test, now with this note: Compound Example 2 series; % viral titer at 5 μM or 15 μM; HCV-infected Huh7-1 cultures.
On to `Cc1nn(C)cc1CN1CCC2C(C1)C(c1ccc(F)cc1)CN2C(=O)c1ccccc1` (stereo not shown), for which the “Activity (viral titer)” value is listed as “+ (≦60% viral titer at 15 μM)”.
Still for that read-out and setting: then `O=C(c1ccncc1)N1CC(c2ccc(F)cc2)C2CN(Cc3cccc(F)c3)CCC21` (stereo not shown), with “− (>60% viral titer at 15 μM (highest concentration tested))”; and `O=C(c1ccccc1)N1C[C@@H](c2ccsc2)[C@@H]2CN(Cc3ccccc3Cl)CC[C@@H]21`, with “− (>60% viral titer at 15 μM (highest concentration tested))”.
Regarding `O=C(c1cccnc1)N1CC(c2ccc(F)cc2)C2CN(Cc3cccc(F)c3)CCC21` (stereo not shown), the “Activity (viral titer)” value is “− (>60% viral titer at 15 μM (highest concentration tested))”.
Regarding `O=C(c1ccccc1)N1CC(c2ccsc2)C2CN(Cc3cccnc3)CCC21` (stereo not shown), the “Activity (viral titer)” value was “− (>60% viral titer at 15 μM (highest concentration tested))”.
Same read-out and setting: then `O=C(c1ccccc1)N1C[C@@H](c2ccsc2)[C@@H]2CN(Cc3cccc(F)c3)CC[C@@H]21`, with “− (>60% viral titer at 15 μM (highest concentration tested))”.
Take `O=C(c1ccncc1)N1C[C@@H](c2ccc(F)cc2)[C@@H]2CN(Cc3ccccn3)CC[C@@H]21`: the “Activity (viral titer)” value is reported as “− (>60% viral titer at 15 μM (highest concentration tested))”.
On to `O=C(c1ccncc1)N1C[C@@H](c2ccsc2)[C@@H]2CN(Cc3ccccc3Cl)CC[C@@H]21`, for which the “Activity (viral titer)” value is given as “− (>60% viral titer at 15 μM (highest concentration tested))”.
As for `O=C(c1ccc(F)cc1)N1C[C@@H](c2ccsc2)[C@@H]2CN(Cc3cccc(F)c3)CC[C@@H]21`, the “Activity (viral titer)” value is on record as “− (>60% viral titer at 15 μM (highest concentration tested))”.
Take `O=C(c1ccccc1)N1C[C@@H](c2ccsc2)[C@@H]2CN(Cc3ccc(Cl)cc3)CC[C@@H]21`: the “Activity (viral titer)” value was “++ (≦60% viral titer at 5 μM)”.
On the same count and under the same terms, then `O=C(c1ccncc1)N1CC(c2ccsc2)C2CN(Cc3ccc(F)cc3)CCC21` (stereo not shown), with “+ (≦60% viral titer at 15 μM)”; and `COc1ccc(C2CN(C(=O)c3ccccc3)C3CCN(Cc4ccc(F)cc4)CC23)cc1` (stereo not shown), with “+++ (≦30% viral titer at 5 μM)”.
For `O=C(c1ccccn1)N1C[C@@H](c2ccc(F)cc2)[C@@H]2CN(Cc3ccc(F)cc3)CC[C@@H]21`, the “Activity (viral titer)” value is “− (>60% viral titer at 15 μM (highest concentration tested))”.
As to `O=C(c1ccccc1)N1C[C@@H](c2ccsc2)[C@@H]2CN(Cc3ccc(F)cc3)CC[C@@H]21`, the “Activity (viral titer)” value is “++ (≦60% viral titer at 5 μM)”.
Turning to `O=C(c1ccncc1)N1CC(c2ccsc2)C2CN(Cc3ccccc3)CCC21` (stereo not shown), the “Activity (viral titer)” value is reported as “− (>60% viral titer at 15 μM (highest concentration tested))”.
For the molecule `O=C(c1ccc(F)cc1)N1CC(c2ccsc2)C2CN(Cc3ccccn3)CCC21` (stereo not shown), the “Activity (viral titer)” value is recorded as “− (>60% viral titer at 15 μM (highest concentration tested))”.
As for `COc1ccccc1CN1CC[C@H]2[C@@H](C1)[C@H](c1ccsc1)CN2C(=O)c1ccccc1`, the “Activity (viral titer)” value is “− (>60% viral titer at 15 μM (highest concentration tested))”.
Regarding `Cc1ccccc1CN1CCC2C(C1)C(c1ccc(F)cc1)CN2C(=O)c1ccncc1` (stereo not shown), the “Activity (viral titer)” value is “− (>60% viral titer at 15 μM (highest concentration tested))”.
In the case of `O=C(c1ccc(F)cc1)N1C[C@@H](c2ccsc2)[C@@H]2CN(Cc3ccncc3)CC[C@@H]21`, the “Activity (viral titer)” value is on record as “− (>60% viral titer at 15 μM (highest concentration tested))”.
For `CC(C)c1ccc(CN2CC[C@H]3[C@@H](C2)[C@H](c2ccsc2)CN3C(=O)c2ccncc2)cc1`, the “Activity (viral titer)” value is “− (>60% viral titer at 15 μM (highest concentration tested))”.
With `O=C(c1ccncc1)N1CC(c2ccc(F)cc2)C2CN(Cc3ccncc3)CCC21` (stereo not shown), the “Activity (viral titer)” value is listed as “− (>60% viral titer at 15 μM (highest concentration tested))”.
Take `O=C(c1ccncc1)N1C[C@@H](c2ccsc2)[C@@H]2CN(Cc3cccc(F)c3F)CC[C@@H]21`: the “Activity (viral titer)” value was “− (>60% viral titer at 15 μM (highest concentration tested))”.
Consider `Cc1ccccc1CN1CC[C@H]2[C@@H](C1)[C@H](c1ccsc1)CN2C(=O)c1ccc(F)cc1`, for which the “Activity (viral titer)” value is “− (>60% viral titer at 15 μM (highest concentration tested))”.
Still for that read-out and setting: then `Cc1nn(C)cc1CN1CC[C@H]2[C@@H](C1)[C@H](c1ccc(F)cc1)CN2C(=O)c1cccnc1`, with “− (>60% viral titer at 15 μM (highest concentration tested))”; and `COc1ccc(CN2CC[C@H]3[C@@H](C2)[C@H](c2ccsc2)CN3C(=O)c2ccncc2)cc1`, with “− (>60% viral titer at 15 μM (highest concentration tested))”.
